pEC50: −log10 of the molar value.
Target: human F508del-CFTR (Homo sapiens, UniProt P13569, DEL508-508)
Experiment: F508del-CFTR cell surface expression (corrector activity), DiscoveRx ß-galactosidase complementation chemiluminescence assay in recombinant U2OS cell line;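 note: U2OS cells co-expressing ProLink-tagged F508del-CFTR and a membrane-anchored enzyme acceptor, where more surface CFTR restores β-galactosidase activity measured by chemiluminescence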
Settings: U2OS cell line, 16h compound incubation; for Emax: U2OS, in relation to the Emax of the corrector lumacaftor (=100%), arithmetic mean values; for pEC50: EC50, F508del-CFTR cell surface expression, geomean values

human F508del-CFTR, sequence (P13569 with tags, fused parts or gaps DEL508-508): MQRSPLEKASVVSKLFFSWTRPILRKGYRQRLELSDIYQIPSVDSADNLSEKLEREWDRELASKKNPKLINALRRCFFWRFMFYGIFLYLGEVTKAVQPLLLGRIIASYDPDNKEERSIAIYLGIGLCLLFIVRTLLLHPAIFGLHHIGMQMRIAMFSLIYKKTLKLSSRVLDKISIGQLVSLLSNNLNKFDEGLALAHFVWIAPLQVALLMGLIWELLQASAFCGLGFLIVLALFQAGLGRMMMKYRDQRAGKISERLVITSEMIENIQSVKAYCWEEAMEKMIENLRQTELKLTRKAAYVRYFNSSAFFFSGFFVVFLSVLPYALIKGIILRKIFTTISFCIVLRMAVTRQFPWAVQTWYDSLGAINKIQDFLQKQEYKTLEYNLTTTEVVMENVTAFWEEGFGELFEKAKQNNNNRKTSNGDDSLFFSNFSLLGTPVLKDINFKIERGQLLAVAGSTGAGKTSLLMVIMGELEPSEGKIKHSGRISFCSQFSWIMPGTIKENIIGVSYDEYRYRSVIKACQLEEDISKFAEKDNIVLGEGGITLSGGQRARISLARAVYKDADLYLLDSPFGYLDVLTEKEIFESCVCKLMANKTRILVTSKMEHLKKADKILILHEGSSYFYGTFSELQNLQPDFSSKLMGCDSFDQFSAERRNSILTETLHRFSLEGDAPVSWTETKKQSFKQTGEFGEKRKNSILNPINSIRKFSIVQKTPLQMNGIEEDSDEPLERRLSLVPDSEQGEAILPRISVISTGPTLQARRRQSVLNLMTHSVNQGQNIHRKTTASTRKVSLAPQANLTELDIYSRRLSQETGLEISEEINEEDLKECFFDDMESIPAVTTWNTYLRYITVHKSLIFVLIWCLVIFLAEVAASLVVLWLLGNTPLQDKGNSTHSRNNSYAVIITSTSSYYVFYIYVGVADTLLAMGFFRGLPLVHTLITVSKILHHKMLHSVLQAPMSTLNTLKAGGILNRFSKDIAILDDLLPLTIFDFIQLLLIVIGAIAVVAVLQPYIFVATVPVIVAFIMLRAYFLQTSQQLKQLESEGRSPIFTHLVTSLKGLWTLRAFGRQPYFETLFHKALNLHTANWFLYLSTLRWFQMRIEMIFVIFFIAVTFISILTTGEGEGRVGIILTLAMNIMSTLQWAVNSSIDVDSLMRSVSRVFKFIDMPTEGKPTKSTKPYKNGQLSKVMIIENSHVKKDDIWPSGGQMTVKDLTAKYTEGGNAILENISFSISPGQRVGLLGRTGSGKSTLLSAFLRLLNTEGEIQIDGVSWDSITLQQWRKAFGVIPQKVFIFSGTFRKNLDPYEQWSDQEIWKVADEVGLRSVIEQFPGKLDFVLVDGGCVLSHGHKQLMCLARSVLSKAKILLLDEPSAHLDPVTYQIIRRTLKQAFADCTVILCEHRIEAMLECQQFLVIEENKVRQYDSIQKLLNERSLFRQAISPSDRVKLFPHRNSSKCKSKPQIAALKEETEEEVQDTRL

SMILES | Emax | pEC50
CC(C)C[C@H]1C(=O)N(C[C@H]2CCCCO2)CC(=O)N[C@H](Cc2ccccc2)COc2ccc3ccccc3c2C(=O)N[C@H](C(=O)NCCc2ccc3c(c2)OCO3)CC(=O)N1C (racemic) [Example 162, (3RS,7S,13R)-N-(2-(benzo[d][1,3]dioxol-5-yl)ethyl)-13-benzyl-7-isobutyl-6-methyl-1,5,8,11-tetraoxo-9-(((R)-tetrahydro-2H-pyran-2-yl)methyl)-1,2,3,4,5,6,7,8,9,10,11,12,13,14-tetradecahydronaphtho[1,2-p][1]oxa[4,7,10,14]tetraazacycloheptadecine-3-carboxamide] | 132% | –
CC(C)C[C@H]1C(=O)N(C[C@@H]2CCCCO2)CC(=O)N[C@H](Cc2ccccc2)COc2ccc3ccccc3c2C(=O)N[C@H](C(=O)NCCc2ccc3c(c2)OCO3)CC(=O)N1C (racemic) [Example 163, (3RS,7S,13R)-N-(2-(benzo[d][1,3]dioxol-5-yl)ethyl)-13-benzyl-7-isobutyl-6-methyl-1,5,8,11-tetraoxo-9-(((S)-tetrahydro-2H-pyran-2-yl)methyl)-1,2,3,4,5,6,7,8,9,10,11,12,13,14-tetradecahydronaphtho[1,2-p][1]oxa[4,7,10,14]tetraazacycloheptadecine-3-carboxamide] | 185% | 6.42
COc1cccc(CCNC(=O)[C@@H]2CC(=O)N(C)[C@@H](CC(C)C)C(=O)N(C[C@H]3CCCCO3)CC(=O)N[C@H](Cc3ccccc3)COc3ccc4ccccc4c3C(=O)N2)c1 (racemic) [Example 164, (3RS,7S,13R)-13-benzyl-7-isobutyl-N-(3-methoxyphenethyl)-6-methyl-1,5,8,11-tetraoxo-9-(((R)-tetrahydro-2H-pyran-2-yl)methyl)-1,2,3,4,5,6,7,8,9,10,11,12,13,14-tetradecahydronaphtho[1,2-p][1]oxa[4,7,10,14]tetraazacycloheptadecine-3-carboxamide] | 167% | –
COc1cccc(CCNC(=O)[C@@H]2CC(=O)N(C)[C@@H](CC(C)C)C(=O)N(C[C@@H]3CCCCO3)CC(=O)N[C@H](Cc3ccccc3)COc3ccc4ccccc4c3C(=O)N2)c1 (racemic) [Example 165, (3RS,7S,13R)-13-benzyl-7-isobutyl-N-(3-methoxyphenethyl)-6-methyl-1,5,8,11-tetraoxo-9-(((S)-tetrahydro-2H-pyran-2-yl)methyl)-1,2,3,4,5,6,7,8,9,10,11,12,13,14-tetradecahydronaphtho[1,2-p][1]oxa[4,7,10,14]tetraazacycloheptadecine-3-carboxamide] | 149% | 6.54
COc1cccc2c1C(=O)N[C@H](C(=O)NCC[C@H]1CCCCO1)CC(=O)N(C)[C@@H](CC(C)C)C(=O)N(CCC1CCCCC1)CC(=O)N[C@H](Cc1ccccc1)CO2 (racemic) [Example 212, (3R,9S,13S)-3-benzyl-7-(2-cyclohexylethyl)-9-isobutyl-16-methoxy-10-methyl-5,8,11,15-tetraoxo-N-(2-((RS)-tetrahydro-2H-pyran-2-yl)ethyl)-2,3,4,5,6,7,8,9,10,11,12,13,14,15-tetradecahydrobenzo[p][1]oxa[4,7,10,14]tetraazacycloheptadecine-13-carboxamide] | 130% | 6.53
COc1cccc2c1C(=O)N[C@H](C(=O)NCC[C@H]1COc3ccccc3O1)CC(=O)N(C)[C@@H](CC(C)C)C(=O)N(CCC1CCCCC1)CC(=O)N[C@H](Cc1ccccc1)CO2 (racemic) [Example 213, (3R,9S,13S)-3-benzyl-7-(2-cyclohexylethyl)-N-(2-((RS)-2,3-dihydrobenzo[b][1,4]dioxin-2-yl)ethyl)-9-isobutyl-16-methoxy-10-methyl-5,8,11,15-tetraoxo-2,3,4,5,6,7,8,9,10,11,12,13,14,15-tetradecahydrobenzo[p][1]oxa[4,7,10,14]tetraazacycloheptadecine-13-carboxamide] | 100% | 6.53
COc1ccc(CCNC(=O)[C@@H]2CC(=O)N(C)[C@@H](CC(C)C)C(=O)N(CCC3CCCCC3)CC(=O)N[C@H](Cc3ccccc3)COc3cccc(OC)c3C(=O)N2)cc1 (racemic) [Example 219, (3R,9S,13RS)-3-benzyl-7-(2-cyclohexylethyl)-9-isobutyl-16-methoxy-N-(4-methoxyphenethyl)-10-methyl-5,8,11,15-tetraoxo-2,3,4,5,6,7,8,9,10,11,12,13,14,15-tetradecahydrobenzo[p][1]oxa[4,7,10,14]tetraazacycloheptadecine-13-carboxamide] | 182% | 6.69
CN1C(=O)C[C@@H](C(=O)NCCc2ccc3c(c2)OCO3)NC(=O)c2c(ccc3ccccc23)OC[C@@H](Cc2ccccc2)NC(=O)CN(C[C@@H]2CCCCO2)C(=O)[C@@H]1CC1CCCC1 (racemic) [Example 284, (3RS,7S,13R)-N-(2-(benzo[d][1,3]dioxol-5-yl)ethyl)-13-benzyl-7-(cyclopentylmethyl)-6-methyl-1,5,8,11-tetraoxo-9-(((S)-tetrahydro-2H-pyran-2-yl)methyl)-1,2,3,4,5,6,7,8,9,10,11,12,13,14-tetradecahydronaphtho[1,2-p][1]oxa[4,7,10,14]tetraazacycloheptadecine-3-carboxamide] | 136% | –
CN1C(=O)C[C@@H](C(=O)NCCc2ccc3c(c2)OCO3)NC(=O)c2c(ccc3ccccc23)OC[C@@H](Cc2ccccc2)NC(=O)CN(C[C@@H]2CCCCO2)C(=O)[C@@H]1CC1CCCCC1 (racemic) [Example 285, (3RS,7S,13R)-N-(2-(benzo[d][1,3]dioxol-5-yl)ethyl)-13-benzyl-7-(cyclohexylmethyl)-6-methyl-1,5,8,11-tetraoxo-9-(((S)-tetrahydro-2H-pyran-2-yl)methyl)-1,2,3,4,5,6,7,8,9,10,11,12,13,14-tetradecahydronaphtho[1,2-p][1]oxa[4,7,10,14]tetraazacycloheptadecine-3-carboxamide] | 118% | –
CN1C(=O)C[C@@H](C(=O)NCCc2ccc3c(c2)OCO3)NC(=O)c2c(ccc3ccccc23)OC[C@@H](Cc2ccccc2)NC(=O)CN(C[C@H]2CCCCO2)C(=O)[C@@H]1CC1CCCC1 (racemic) [Example 286, (3RS,7S,13R)-N-(2-(benzo[d][1,3]dioxol-5-yl)ethyl)-13-benzyl-7-(cyclopentylmethyl)-6-methyl-1,5,8,11-tetraoxo-9-(((R)-tetrahydro-2H-pyran-2-yl)methyl)-1,2,3,4,5,6,7,8,9,10,11,12,13,14-tetradecahydronaphtho[1,2-p][1]oxa[4,7,10,14]tetraazacycloheptadecine-3-carboxamide] | 144% | –
CN1C(=O)C[C@@H](C(=O)NCCc2ccc3c(c2)OCO3)NC(=O)c2c(ccc3ccccc23)OC[C@@H](Cc2ccccc2)NC(=O)CN(C[C@H]2CCCCO2)C(=O)[C@@H]1CC1CCCCC1 (racemic) [Example 287, (3RS,7S,13R)-N-(2-(benzo[d][1,3]dioxol-5-yl)ethyl)-13-benzyl-7-(cyclohexylmethyl)-6-methyl-1,5,8,11-tetraoxo-9-(((R)-tetrahydro-2H-pyran-2-yl)methyl)-1,2,3,4,5,6,7,8,9,10,11,12,13,14-tetradecahydronaphtho[1,2-p][1]oxa[4,7,10,14]tetraazacycloheptadecine-3-carboxamide] | 154% | 6.68
CN1C(=O)C[C@@H](C(=O)NCCc2ccc3c(c2)OCO3)NC(=O)c2c(ccc3ccccc23)OC[C@@H](Cc2ccccc2)NC(=O)CN(CC[C@H]2CCCCO2)C(=O)[C@@H]1CC1CCCC1 (racemic) [Example 288, (3RS,7S,13R)-N-(2-(benzo[d][1,3]dioxol-5-yl)ethyl)-13-benzyl-7-(cyclopentylmethyl)-6-methyl-1,5,8,11-tetraoxo-9-(2-((SR)-tetrahydro-2H-pyran-2-yl)ethyl)-1,2,3,4,5,6,7,8,9,10,11,12,13,14-tetradecahydronaphtho[1,2-p][1]oxa[4,7,10,14]tetraazacycloheptadecine-3-carboxamide] | 175% | 6.83
CN1C(=O)C[C@@H](C(=O)NCCc2ccc3c(c2)OCO3)NC(=O)c2c(ccc3ccccc23)OC[C@@H](Cc2ccccc2)NC(=O)CN(CC[C@H]2CCCCO2)C(=O)[C@@H]1CC1CCCCC1 (racemic) [Example 289, (3RS,7S,13R)-N-(2-(benzo[d][1,3]dioxol-5-yl)ethyl)-13-benzyl-7-(cyclohexylmethyl)-6-methyl-1,5,8,11-tetraoxo-9-(2-((SR)-tetrahydro-2H-pyran-2-yl)ethyl)-1,2,3,4,5,6,7,8,9,10,11,12,13,14-tetradecahydronaphtho[1,2-p][1]oxa[4,7,10,14]tetraazacycloheptadecine-3-carboxamide] | 160% | 6.73
CN1C(=O)C[C@@H](C(=O)NCCc2ccc3c(c2)OCO3)NC(=O)c2c(ccc3ccccc23)OC[C@@H](Cc2ccccc2)NC(=O)CN(CCC2CCCCC2)C(=O)[C@@H]1CC1CCCC1 (racemic) [Example 290, (3RS,7S,13R)-N-(2-(benzo[d][1,3]dioxol-5-yl)ethyl)-13-benzyl-9-(2-cyclohexylethyl)-7-(cyclopentylmethyl)-6-methyl-1,5,8,11-tetraoxo-1,2,3,4,5,6,7,8,9,10,11,12,13,14-tetradecahydronaphtho[1,2-p][1]oxa[4,7,10,14]tetraazacycloheptadecine-3-carboxamide] | 260% | –
CN1C(=O)C[C@@H](C(=O)NCCc2ccc3c(c2)OCO3)NC(=O)c2c(ccc3ccccc23)OC[C@@H](Cc2ccccc2)NC(=O)CN(CCC2CCCCC2)C(=O)[C@@H]1CC1CCCCC1 (racemic) [Example 291, (3RS,7S,13R)-N-(2-(benzo[d][1,3]dioxol-5-yl)ethyl)-13-benzyl-9-(2-cyclohexylethyl)-7-(cyclohexylmethyl)-6-methyl-1,5,8,11-tetraoxo-1,2,3,4,5,6,7,8,9,10,11,12,13,14-tetradecahydronaphtho[1,2-p][1]oxa[4,7,10,14]tetraazacycloheptadecine-3-carboxamide] | 210% | 6.96
